The record followed here is US20250381168A1, “VLA4 INHIBITORS AND USES THEREOF” (Washington University, priority 2022, published 2025).

Experiment [1] concerns hematopoietic stem/progenitor cells (HSPCs). In words: HSPC mobilization into peripheral blood, colony forming unit (CFU) assay. As to HSPC mobilization, result in words: test concentration or dose not given here. As to No. CFU (×10^3)/mL ± SD, 6 hr: test concentration or dose not given here. The settings on record: mice, single dose; for No. CFU (×10^3)/mL ± SD, 1 hr: 1 hr post dose (TABLE 20); for No. CFU (×10^3)/mL ± SD, 8 hr: 8 hr post dose (TABLE 20).
The next experiment deals with VLA-4 (a4b1) (Homo sapiens (Human), UniProt P05556+P13612). In words: sVCAM flow cytometry cell-based assay (inhibition of soluble VCAM-1 binding to G2 ALL cells).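 Also: compounds at 0.1 to 1000 nM preincubated 30 min with G2 ALL cells, then VCAM/Fc added for 30 min, bound VCAM-1 detected by PE secondary antibody, percent binding cells by flow cytometry.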 On the technique in general: A flow cytometer gives signals particle by particle.
VLA-4 (a4b1), sequence (P13612 34-1032): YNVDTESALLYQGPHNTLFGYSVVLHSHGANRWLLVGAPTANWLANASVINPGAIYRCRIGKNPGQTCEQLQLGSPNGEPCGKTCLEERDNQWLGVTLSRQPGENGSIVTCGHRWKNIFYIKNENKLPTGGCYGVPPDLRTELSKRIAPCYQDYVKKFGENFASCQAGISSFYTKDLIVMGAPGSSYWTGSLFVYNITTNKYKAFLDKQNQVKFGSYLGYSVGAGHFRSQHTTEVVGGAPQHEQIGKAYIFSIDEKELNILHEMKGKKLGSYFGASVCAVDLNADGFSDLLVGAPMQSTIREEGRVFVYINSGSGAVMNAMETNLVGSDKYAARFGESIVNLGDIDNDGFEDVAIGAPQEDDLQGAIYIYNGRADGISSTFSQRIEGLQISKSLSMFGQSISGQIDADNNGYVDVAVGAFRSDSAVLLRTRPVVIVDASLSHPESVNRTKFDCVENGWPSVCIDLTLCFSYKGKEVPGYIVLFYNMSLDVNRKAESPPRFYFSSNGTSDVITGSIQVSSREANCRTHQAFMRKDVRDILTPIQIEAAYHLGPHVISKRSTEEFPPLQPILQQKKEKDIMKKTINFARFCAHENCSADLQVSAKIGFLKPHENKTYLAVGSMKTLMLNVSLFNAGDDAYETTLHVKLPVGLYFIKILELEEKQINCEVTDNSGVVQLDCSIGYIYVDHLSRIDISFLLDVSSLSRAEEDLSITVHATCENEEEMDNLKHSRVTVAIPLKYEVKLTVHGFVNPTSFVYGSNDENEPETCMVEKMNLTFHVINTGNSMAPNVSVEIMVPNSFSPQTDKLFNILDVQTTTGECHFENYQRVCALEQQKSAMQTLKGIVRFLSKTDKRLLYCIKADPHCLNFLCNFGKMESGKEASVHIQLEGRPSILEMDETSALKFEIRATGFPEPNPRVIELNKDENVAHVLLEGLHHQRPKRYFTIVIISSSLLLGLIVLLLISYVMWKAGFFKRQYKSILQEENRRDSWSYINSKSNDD
VLA-4 (a4b1), sequence (P05556 21-798): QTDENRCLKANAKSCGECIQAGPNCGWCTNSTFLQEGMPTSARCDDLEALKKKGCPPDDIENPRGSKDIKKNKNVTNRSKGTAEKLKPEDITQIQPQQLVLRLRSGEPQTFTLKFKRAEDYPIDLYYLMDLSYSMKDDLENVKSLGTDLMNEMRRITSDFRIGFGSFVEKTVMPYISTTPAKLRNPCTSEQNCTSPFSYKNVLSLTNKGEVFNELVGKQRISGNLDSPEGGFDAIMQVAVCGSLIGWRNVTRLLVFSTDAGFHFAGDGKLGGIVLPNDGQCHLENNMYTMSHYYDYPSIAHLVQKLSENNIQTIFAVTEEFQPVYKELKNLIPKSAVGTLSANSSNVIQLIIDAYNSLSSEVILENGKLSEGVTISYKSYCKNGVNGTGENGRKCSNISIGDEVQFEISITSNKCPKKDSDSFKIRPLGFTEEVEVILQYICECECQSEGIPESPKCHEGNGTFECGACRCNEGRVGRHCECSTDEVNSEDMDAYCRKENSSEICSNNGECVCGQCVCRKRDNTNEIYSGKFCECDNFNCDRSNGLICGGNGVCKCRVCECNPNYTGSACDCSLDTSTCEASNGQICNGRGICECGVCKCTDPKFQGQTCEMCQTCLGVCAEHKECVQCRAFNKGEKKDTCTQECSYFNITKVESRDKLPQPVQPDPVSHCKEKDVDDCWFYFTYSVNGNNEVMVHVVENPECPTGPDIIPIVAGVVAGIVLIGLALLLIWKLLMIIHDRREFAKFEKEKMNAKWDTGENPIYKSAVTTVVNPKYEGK
[2] abbreviates: inhibition of sVCAM-1 binding to human G2 ALL cells (TABLE 3), read-out: SVCAM-1, IC50.
[3] abbreviates: peripheral blood, 4 hr post dose (TABLE 20).
Setting [4] is: as listed in TABLE 20, read-out: sVCAM IC50.

pIC50: −log10 of the molar value. “Also recorded” adds a separate entry of the source. Like-named read-outs stand apart in the source and are kept apart here.

Regarding `COCCOCCOCCOCCOCCOCCOCCOCCOCCOCCOCCOCCOCCOCCOCCOCCOCc1cc(OC)c(-c2ccc(C[C@H](NC(=O)[C@@H]3CCCN3S(=O)(=O)c3cc(Cl)cc(Cl)c3)C(=O)O)cc2)c(OC)c1` [Example C14, (S)-3-(4′-(2,5,8,11,14,17,20,23,26,29,32,35,38,41,44,47,50-heptadecaoxahenpentacontyl)-2′,6′-dimethoxy-[1,1′-biphenyl]-4-yl)-2-((S)-1-((3,5-dichlorophenyl)sulfonyl)pyrrolidine-2-carboxamido)propanoic Acid], the “HSPC mobilization, result in words” value in experiment [1] was “returning to baseline by 4 hours and clearly at baseline by 6 hours; also recorded: returning to baseline at 4 hours and affords no mobilization effects at 6 hours”. The “No. CFU (×10^3)/mL ± SD, 2 hr” value in experiment [1] (peripheral blood, 2 hr post dose (TABLE 9)) is on record as 3.17 ± 1.17 (×10^3)/mL; in experiment [1] (peripheral blood, 2 hr post dose (TABLE 10)) it was 3.40 ± 1.42 (×10^3)/mL. The “No. CFU (×10^3)/mL ± SD, 4 hr” value in experiment [1] (peripheral blood, 4 hr post dose (TABLE 9)) is 0.50 ± 0.25 (×10^3)/mL; in experiment [1] (peripheral blood, 4 hr post dose (TABLE 10)) it was 0.82 ± 0.47 (×10^3)/mL. Moreover, the “No. CFU (×10^3)/mL ± SD, 6 hr” value in experiment [1] (peripheral blood, 6 hr post dose (TABLE 9)) was 0.08 ± 0.11 (×10^3)/mL; in experiment [1] (peripheral blood, 6 hr post dose (TABLE 10)), 0.25 ± 0.16 (×10^3)/mL. In addition, the pIC50 is 9.15 at VLA-4 (a4b1) (as listed in TABLE 9, read-out: sVCAM IC50); 9.15 at VLA-4 (a4b1) (as listed in TABLE 10, read-out: sVCAM IC50); 9.15 at VLA-4 (a4b1) (setting [2]).

`COCCOCCOCCOCCOCCOCCOCCOCCSCc1cc(OC)c(-c2ccc(C[C@H](NC(=O)[C@@H]3CCCN3S(=O)(=O)c3cc(Cl)cc(Cl)c3)C(=O)O)cc2)c(OC)c1` [Example C16]: the “No. CFU (x10^3)/mL ± SD, 2 hr” value in experiment [1] (peripheral blood, 2 hr post dose (TABLE 11)) was 2.34 ± 0.55 (x10^3)/mL. Further, the “No. CFU (x10^3)/mL ± SD, 4 hr” value in experiment [1] (peripheral blood, 4 hr post dose (TABLE 11)) is on record as 1.14 ± 0.86 (x10^3)/mL. Further, the “No. CFU (x10^3)/mL ± SD, 6 hr” value in experiment [1] (peripheral blood, 6 hr post dose (TABLE 11)) is on record as 0.38 ± 0.24 (x10^3)/mL. In addition, the “No. CFU (x10^3)/mL ± SD, 24 hr” value in experiment [1] (peripheral blood, 24 hr post dose (TABLE 11)) was 0.14 ± 0.06 (x10^3)/mL. Moreover, the pIC50 at VLA-4 (a4b1) (as listed in TABLE 11, read-out: sVCAM IC50) was 9.81; at VLA-4 (a4b1) (setting [2]), 9.81.

As for `Cc1cccc(Cl)c1C(=O)N[C@@H](Cc1ccc(NC(=O)c2c(Cl)cccc2Cl)cc1)C(=O)O` [RO0270608], the “HSPC mobilization, result in words” value in experiment [1] was “lack of any appreciable HSC mobilization”. In addition, in experiment [1] (peripheral blood), the “No. CFU (×10^3)/mL ± SD, 1 hr” value is 0.64 ± 0.41 (×10^3)/mL. In addition, the “No. CFU (×10^3)/mL ± SD, 4 hr” value in experiment [1] (setting [3]) was 0.19 ± 0.06 (×10^3)/mL. Moreover, in experiment [1] (peripheral blood), the “No. CFU (×10^3)/mL ± SD, 8 hr” value was 0.11 ± 0.05 (×10^3)/mL. Also, the pIC50 at VLA-4 (a4b1) (setting [4]) and on VLA-4 (a4b1) (setting [2]) was 7.01 throughout.

For `COc1cccc(OC)c1-c1ccc(C[C@H](NC(=O)c2c(Cl)cccc2Cl)C(=O)O)cc1` [TR-14035], in experiment [1] (peripheral blood), the “No. CFU (×10^3)/mL ± SD, 1 hr” value is recorded as 0.54 ± 0.15 (×10^3)/mL and the “No. CFU (×10^3)/mL ± SD, 8 hr” value was 0.10 ± 0.05 (×10^3)/mL. Besides, the “No. CFU (×10^3)/mL ± SD, 4 hr” value in experiment [1] (setting [3]) is on record as 0.18 ± 0.13 (×10^3)/mL. Moreover, the pIC50 on VLA-4 (a4b1) (setting [4]) was 6.61. Also, at VLA-4 (a4b1) (setting [2]), the pIC50 is 6.61.
